According to US7750020B2, “Sulfonamide-thiazolpyridine derivatives as glucokinase activators useful the treatment of Type 2 diabetes” (Novartis AG, priority 2004, dated 2010):

Target: T1, recombinant GST-GK (Homo sapiens, UniProt P35557)
T1 sequence (P35557 1-465): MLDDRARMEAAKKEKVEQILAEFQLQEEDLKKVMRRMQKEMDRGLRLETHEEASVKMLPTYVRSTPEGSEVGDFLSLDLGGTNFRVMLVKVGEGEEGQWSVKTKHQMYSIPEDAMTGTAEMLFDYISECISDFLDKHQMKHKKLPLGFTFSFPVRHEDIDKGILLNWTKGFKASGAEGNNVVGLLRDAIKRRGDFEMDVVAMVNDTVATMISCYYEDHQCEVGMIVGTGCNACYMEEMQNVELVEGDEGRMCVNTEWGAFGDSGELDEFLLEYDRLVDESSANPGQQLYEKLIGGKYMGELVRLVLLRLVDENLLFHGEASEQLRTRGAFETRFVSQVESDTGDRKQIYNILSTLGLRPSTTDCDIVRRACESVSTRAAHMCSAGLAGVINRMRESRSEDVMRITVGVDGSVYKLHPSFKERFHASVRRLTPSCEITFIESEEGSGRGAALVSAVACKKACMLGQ
Experiment: in vitro assay measuring the activation of recombinant GST-GK
Type: biochemical
Description: The glucokinase activation in vitro may be determined by measuring the activation of recombinant GST-GK by a compound of the present invention in the absence or the presence of GKRP, a 68,000 Da protein inhibitor of GK. In these assays, formation of glucose-6-phosphate is coupled directly to the formation of thioNADH. GST-GK catalyzes the reaction of glucose and Mg-ATP to produce glucose-6-phosphate and ADP. Glucose-6-phosphate dehydrogenase (G6PDH) reduces thionicotinamide (thioNAD) to thioNADH. The assay measures the formation of […] at 405 nM.
The basic GK assay components are as follows: 25 mM HEPES (pH 7.1), 25 mM KCl, 2.5 mM MgCl2, 1 mM ATP (Sigma A-5394), 1 mM DTT, 1 mM thioNAD (Sigma T-7375), 80 units/mL G6PDH (Sigma G-5885), 10 mM glucose and […] GST-GK (110 nM). For assessing reversal of GK inhibition by GKRP, 20 μM Fructose-1-phosphate ([…]) and 25 μg/mL of recombinant GKRP (370 nM) are added to these assay components. F-1-P at 1 μM is used as a control in the GK/GKRP assay. F-1-P reverses inhibition of GST-GK by GKRP.
The assay is done in standard, 96-well, round-bottom plates and the total assay volume is 25 μL. […] The plates are then delivered via the Zymark XP arm to a Thermomax plate reader and read kinetically over three min at 405 nM at RT. Units are expressed as milli-optical density per minute (mOD/min).

| EC50 [µM] | Compound |
| --- | --- |
| ~0.251 | COc1ccc2nc(NC(=O)C(CC3CCCC3)c3ccc(S(=O)(=O)N4CCN(C)CC4)cc3)sc2n1 (stereo not shown) [Example 1, 3-Cyclopentyl-N-(5-methoxy-thiazolo[5,4-b]pyridin-2-yl)-2-[4-(4-methyl-piperazine-1-sulfonyl)-phenyl]-propionamide] |

Tested on: not given
Experiment: not given

| melting point [°C] | Compound |
| --- | --- |
| 184 to 218 | COc1ccc2nc(NC(=O)C(CC3CCCC3)c3ccc(S(=O)(=O)N4CCCCC4)cc3)sc2n1 (stereo not shown) [Example 17, 3-Cyclopentyl-N-(5-methoxy-thiazolo[5,4-b]pyridin-2-yl)-2-[4-(piperidine-1-sulfonyl)-phenyl]-propionamide] |
| 223 to 226 | COc1ccc2nc(NC(=O)C(CC3CCCC3)c3ccc(S(=O)(=O)Nc4ccccc4)cc3)sc2n1 (stereo not shown) [Example 7, 3-Cyclopentyl-N-(5-methoxy-thiazolo[5,4-b]pyridin-2-yl)-2-(4-phenylsulfamoyl-phenyl)-propionamide] |
| 238 to 240 | COc1ccc2nc(NC(=O)C(CC3CCCC3)c3ccc(S(=O)(=O)NCc4ccccc4F)cc3)sc2n1 (stereo not shown) [Example 21, 3-Cyclopentyl-2-[4-(2-fluoro-benzylsulfamoyl)-phenyl]-N-(5-methoxy-thiazolo[5,4-b]pyridin-2-yl)-propionamide] |
| 227 to 229 | COc1ccc2nc(NC(=O)C(CC3CCCC3)c3ccc(S(=O)(=O)NCc4cccnc4)cc3)sc2n1 (stereo not shown) [Example 15, 3-Cyclopentyl-N-(5-methoxy-thiazolo[5,4-b]pyridin-2-yl)-2-{4-[(pyridin-3-ylmethyl)-sulfamoyl]-phenyl}-propionamide] |
| 206 to 208 | COc1ccc2nc(NC(=O)C(CC3CCCC3)c3ccc(S(=O)(=O)N(C)Cc4ccccc4)cc3)sc2n1 (stereo not shown) [Example 24, 2-[4-(Benzyl-methyl-sulfamoyl)-phenyl]-3-cyclopentyl-N-(5-methoxy-thiazolo[5,4-b]pyridin-2-yl)-propionamide] |
| 179 to 181 | COc1cccc(CNS(=O)(=O)c2ccc(C(CC3CCCC3)C(=O)Nc3nc4ccc(OC)nc4s3)cc2)c1 (stereo not shown) [Example 6, 3-Cyclopentyl-2-[4-(3-methoxy-benzylsulfamoyl)-phenyl]-N-(5-methoxy-thiazolo[5,4-b]pyridin-2-yl)-propionamide] |
| 120 to 123 | COc1ccc2nc(NC(=O)C(CC3CCCC3)c3ccc(S(=O)(=O)N4CCOCC4)cc3)sc2n1 (stereo not shown) [Example 18, 3-Cyclopentyl-N-(5-methoxy-thiazolo[5,4-b]pyridin-2-yl)-2-[4-(morpholine-4-sulfonyl)-phenyl]-propionamide] |
| 150 to 152 | CCN(CC)S(=O)(=O)c1ccc(C(CC2CCCC2)C(=O)Nc2nc3ccc(OC)nc3s2)cc1 (stereo not shown) [Example 13, 3-Cyclopentyl-2-(4-diethylsulfamoyl-phenyl)-N-(5-methoxy-thiazolo[5,4-b]pyridin-2-yl)-propionamide] |

The remaining lines, values behind:

| Compound | melting point [°C] |
| --- | --- |
| COc1ccc2nc(NC(=O)C(CC3CCCC3)c3ccc(S(=O)(=O)NCc4ccco4)cc3)sc2n1 (stereo not shown) [Example 10, 3-Cyclopentyl-2-{4-[(furan-2-ylmethyl)-sulfamoyl]-phenyl}-N-(5-methoxy-thiazolo[5,4-b]pyridin-2-yl)-propionamide] | 244 to 247 |
| COc1ccc2nc(NC(=O)C(CC3CCCC3)c3ccc(S(=O)(=O)NCc4ccccc4)cc3)sc2n1 (stereo not shown) [Example 23, 2-(4-Benzylsulfamoyl-phenyl)-3-cyclopentyl-N-(5-methoxy-thiazolo[5,4-b]pyridin-2-yl)-propionamide] | 237 to 240 |
| CCN1CCN(S(=O)(=O)c2ccc(C(CC3CCCC3)C(=O)Nc3nc4ccc(OC)nc4s3)cc2)CC1 (stereo not shown) [Example 26, 3-Cyclopentyl-2-[4-(4-ethyl-piperazine-1-sulfonyl)-phenyl]-N-(5-methoxy-thiazolo[5,4-b]pyridin-2-yl)-propionamide] | 106 to 110 |
| CCCN(c1ccccc1)S(=O)(=O)c1ccc(C(CC2CCCC2)C(=O)Nc2nc3ccc(OC)nc3s2)cc1 (stereo not shown) [Example 11, 3-Cyclopentyl-N-(5-methoxy-thiazolo[5,4-b]pyridin-2-yl)-2-[4-(phenyl-propyl-sulfamoyl)-phenyl]-propionamide] | 83 to 85 |
| CCCN(CCC)S(=O)(=O)c1ccc(C(CC2CCCC2)C(=O)Nc2nc3ccc(OC)nc3s2)cc1 (stereo not shown) [Example 14, 3-Cyclopentyl-2-(4-dipropylsulfamoyl-phenyl)-N-(5-methoxy-thiazolo[5,4-b]pyridin-2-yl)-propionamide] | 64 to 66 |
| COc1ccc2nc(NC(=O)C(CC3CCCC3)c3ccc(S(=O)(=O)N(C(C)C)C(C)C)cc3)sc2n1 (stereo not shown) [Example 9, 3-Cyclopentyl-2-(4-diisopropylsulfamoyl-phenyl)-N-(5-methoxy-thiazolo[5,4-b]pyridin-2-yl)-propionamide] | 83 to 85 |
| CCCCN(CCCC)S(=O)(=O)c1ccc(C(CC2CCCC2)C(=O)Nc2nc3ccc(OC)nc3s2)cc1 (stereo not shown) [Example 25, 3-Cyclopentyl-2-(4-dibutylsulfamoyl-phenyl)-N-(5-methoxy-thiazolo[5,4-b]pyridin-2-yl)-propionamide] | 65 to 67 |
| COc1ccc2nc(NC(=O)C(CC3CCCC3)c3ccc(S(=O)(=O)Nc4cccnc4)cc3)sc2n1 (stereo not shown) [Example 20, 3-Cyclopentyl-N-(5-methoxy-thiazolo[5,4-b]pyridin-2-yl)-2-[4-(pyridin-3-ylsulfamoyl)-phenyl]-propionamide] | 125 to 127 |
| COc1ccc2nc(NC(=O)C(CC3CCCC3)c3ccc(S(=O)(=O)N4CCN(C(C)=O)CC4)cc3)sc2n1 (stereo not shown) [Example 27, 2-[4-(4-Acetyl-piperazine-1-sulfonyl)-phenyl]-3-cyclopentyl-N-(5-methoxy-thiazolo[5,4-b]pyridin-2-yl)-propionamide] | 215 to 217 |
| COc1ccc2nc(NC(=O)C(CC3CCCC3)c3ccc(S(=O)(=O)NC4CC4)cc3)sc2n1 (stereo not shown) [Example 4, 3-Cyclopentyl-2-(4-cyclopropylsulfamoyl-phenyl)-N-(5-methoxy-thiazolo[5,4-b]pyridin-2-yl)-propionamide] | 235 to 237 |
| COc1ccc2nc(NC(=O)C(CC3CCCC3)c3ccc(S(=O)(=O)N(C)C)cc3)sc2n1 (stereo not shown) [Example 12, 3-Cyclopentyl-2-(4-dimethylsulfamoyl-phenyl)-N-(5-methoxy-thiazolo[5,4-b]pyridin-2-yl)-propionamide] | 229 to 234 |
| COCCNS(=O)(=O)c1ccc(C(CC2CCCC2)C(=O)Nc2nc3ccc(OC)nc3s2)cc1 (stereo not shown) [Example 5, 3-Cyclopentyl-2-[4-(2-methoxy-ethylsulfamoyl)-phenyl]-N-(5-methoxy-thiazolo[5,4-b]pyridin-2-yl)-propionamide] | 209 to 211 |
| COc1ccc2nc(NC(=O)C(CC3CCCC3)c3ccc(S(=O)(=O)NCc4cccs4)cc3)sc2n1 (stereo not shown) [Example 19, 3-Cyclopentyl-N-(5-methoxy-thiazolo[5,4-b]pyridin-2-yl)-2-{4-[(thiophen-2-ylmethyl)-sulfamoyl]-phenyl}-propionamide] | 263 to 268 |
